Test [1] deals with Receptor-interacting serine/threonine-protein kinase 3 (Homo sapiens) (UniProt Q9Y572). Description: Selectivity interaction (LanthaScreen Eu Kinase Binding Assay) EUB0001632a RIPK3. Particulars: at 10 µM. In general terms: Time-resolved FRET reads energy transfer from a long-lived donor to a nearby acceptor.
The target of test [2] is Tyrosine-protein kinase Fer (Homo sapiens) (UniProt P16591). Description: Selectivity interaction (KinomeScan (DiscoverX)) EUB0000607a FER. Particulars: at 10 µM.
Chain of Tyrosine-protein kinase Fer (Homo sapiens) (P16591 whole entry, looked up): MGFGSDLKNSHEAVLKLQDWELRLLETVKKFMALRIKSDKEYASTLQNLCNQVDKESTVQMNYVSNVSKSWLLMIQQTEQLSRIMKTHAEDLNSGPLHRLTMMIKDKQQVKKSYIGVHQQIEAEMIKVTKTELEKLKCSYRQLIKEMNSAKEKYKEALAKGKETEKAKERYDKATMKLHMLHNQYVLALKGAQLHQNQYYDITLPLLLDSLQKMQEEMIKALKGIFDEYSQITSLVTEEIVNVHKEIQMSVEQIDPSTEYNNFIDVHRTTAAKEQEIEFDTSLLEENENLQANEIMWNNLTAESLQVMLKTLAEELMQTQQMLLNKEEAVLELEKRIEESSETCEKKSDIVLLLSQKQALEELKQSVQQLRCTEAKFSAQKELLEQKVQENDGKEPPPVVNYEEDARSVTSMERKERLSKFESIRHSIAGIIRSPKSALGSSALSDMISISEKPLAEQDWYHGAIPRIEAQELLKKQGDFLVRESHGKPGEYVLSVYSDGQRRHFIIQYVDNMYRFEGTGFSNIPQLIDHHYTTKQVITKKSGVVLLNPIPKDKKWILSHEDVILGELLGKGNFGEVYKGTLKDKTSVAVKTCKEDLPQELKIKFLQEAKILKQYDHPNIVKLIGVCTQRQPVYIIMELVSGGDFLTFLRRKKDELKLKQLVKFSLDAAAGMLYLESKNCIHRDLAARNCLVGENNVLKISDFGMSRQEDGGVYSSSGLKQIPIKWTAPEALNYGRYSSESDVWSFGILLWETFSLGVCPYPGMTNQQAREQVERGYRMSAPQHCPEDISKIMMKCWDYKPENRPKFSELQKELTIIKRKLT
The target in test [3] is T1, Serine/threonine-protein kinase ULK1 (Homo sapiens) (UniProt O75385).
T1 sequence (whole entry): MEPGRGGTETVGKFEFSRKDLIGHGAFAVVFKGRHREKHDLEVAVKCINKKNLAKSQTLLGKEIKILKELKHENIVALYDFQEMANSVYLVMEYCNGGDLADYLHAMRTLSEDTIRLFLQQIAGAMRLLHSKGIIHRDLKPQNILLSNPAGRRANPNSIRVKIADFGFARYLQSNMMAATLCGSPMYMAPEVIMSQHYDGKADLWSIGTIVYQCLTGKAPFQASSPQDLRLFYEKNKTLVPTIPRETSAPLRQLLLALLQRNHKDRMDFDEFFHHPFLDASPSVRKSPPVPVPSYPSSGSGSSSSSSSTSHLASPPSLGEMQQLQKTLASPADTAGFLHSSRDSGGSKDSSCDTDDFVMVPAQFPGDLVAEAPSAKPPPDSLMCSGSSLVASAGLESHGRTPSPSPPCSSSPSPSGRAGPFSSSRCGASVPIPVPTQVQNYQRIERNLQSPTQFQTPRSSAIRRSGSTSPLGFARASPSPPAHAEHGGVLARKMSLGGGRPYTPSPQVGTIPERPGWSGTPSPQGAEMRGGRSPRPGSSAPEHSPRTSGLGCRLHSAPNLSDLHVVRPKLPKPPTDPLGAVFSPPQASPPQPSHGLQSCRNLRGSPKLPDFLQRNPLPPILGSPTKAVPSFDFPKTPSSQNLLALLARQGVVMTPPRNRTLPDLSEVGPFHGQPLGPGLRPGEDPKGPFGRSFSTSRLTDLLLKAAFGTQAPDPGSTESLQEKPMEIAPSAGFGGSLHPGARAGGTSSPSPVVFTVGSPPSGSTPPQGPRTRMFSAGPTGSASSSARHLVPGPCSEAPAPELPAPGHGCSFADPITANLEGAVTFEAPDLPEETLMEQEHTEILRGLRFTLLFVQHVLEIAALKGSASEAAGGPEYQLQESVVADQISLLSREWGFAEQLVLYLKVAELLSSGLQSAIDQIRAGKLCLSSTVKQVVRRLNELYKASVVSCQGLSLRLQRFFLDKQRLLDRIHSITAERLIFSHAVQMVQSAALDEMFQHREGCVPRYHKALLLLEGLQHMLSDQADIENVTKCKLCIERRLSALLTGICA
Briefly: Selectivity interaction (KinomeScan (DiscoverX)) EUB0000607a ULK1. The following applies: at 10 µM.

In test [4] the target is Dual specificity protein kinase CLK1 (Homo sapiens, UniProt P49759). Description: Selectivity interaction (KinomeScan (DiscoverX)) EUB0001550a CLK1. The following applies: at 1 µM.
Chain of Dual specificity protein kinase CLK1 (P49759 whole entry, looked up): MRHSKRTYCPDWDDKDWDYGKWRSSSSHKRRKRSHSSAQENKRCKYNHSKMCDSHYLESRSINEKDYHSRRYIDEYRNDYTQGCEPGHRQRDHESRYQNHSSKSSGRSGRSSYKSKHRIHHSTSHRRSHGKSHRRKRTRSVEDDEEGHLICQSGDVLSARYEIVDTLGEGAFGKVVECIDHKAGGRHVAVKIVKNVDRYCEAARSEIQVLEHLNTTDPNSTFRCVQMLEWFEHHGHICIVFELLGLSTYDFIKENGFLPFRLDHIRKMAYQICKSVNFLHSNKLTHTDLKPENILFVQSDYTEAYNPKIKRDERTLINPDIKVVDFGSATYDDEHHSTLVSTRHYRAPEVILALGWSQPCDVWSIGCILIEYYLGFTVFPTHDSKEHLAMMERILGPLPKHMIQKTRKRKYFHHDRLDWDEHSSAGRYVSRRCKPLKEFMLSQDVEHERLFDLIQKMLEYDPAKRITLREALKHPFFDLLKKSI
In test [5] the target is T2, Serine/threonine-protein kinase Sgk3 (Homo sapiens) (UniProt Q96BR1).
T2 sequence (whole entry): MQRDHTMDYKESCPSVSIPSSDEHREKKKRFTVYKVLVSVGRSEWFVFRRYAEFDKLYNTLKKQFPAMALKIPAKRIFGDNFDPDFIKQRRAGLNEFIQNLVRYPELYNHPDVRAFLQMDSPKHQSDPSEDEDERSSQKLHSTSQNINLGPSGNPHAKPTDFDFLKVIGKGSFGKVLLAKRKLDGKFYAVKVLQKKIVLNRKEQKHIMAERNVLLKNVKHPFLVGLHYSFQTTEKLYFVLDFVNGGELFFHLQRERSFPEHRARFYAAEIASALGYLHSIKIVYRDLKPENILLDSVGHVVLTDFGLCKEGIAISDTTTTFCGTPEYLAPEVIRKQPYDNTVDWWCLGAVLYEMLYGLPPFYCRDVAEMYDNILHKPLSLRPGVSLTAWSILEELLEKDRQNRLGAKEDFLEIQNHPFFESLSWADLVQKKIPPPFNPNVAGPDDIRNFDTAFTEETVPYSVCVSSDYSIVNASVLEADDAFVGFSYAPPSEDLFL
Description: Selectivity interaction (ActivX KiNativ screen (kinase selectivity in THP-1 cell lysates)) EUB0000639a SGK3. The class given is subcellular. Particulars: lysate.

Test [6] has as its target Mitogen-activated protein kinase kinase kinase 20 (Homo sapiens) (UniProt Q9NYL2). Description: Selectivity interaction (KinomeScan (DiscoverX)) EUB0000045b MAP3K20.
For test [7], the target named is Tyrosine-protein kinase Fes/Fps (Homo sapiens) (UniProt P07332). Description: Selectivity interaction (ProQinase) EUB0000171b FES.
Chain of Tyrosine-protein kinase Fes/Fps (Homo sapiens) (P07332 whole entry): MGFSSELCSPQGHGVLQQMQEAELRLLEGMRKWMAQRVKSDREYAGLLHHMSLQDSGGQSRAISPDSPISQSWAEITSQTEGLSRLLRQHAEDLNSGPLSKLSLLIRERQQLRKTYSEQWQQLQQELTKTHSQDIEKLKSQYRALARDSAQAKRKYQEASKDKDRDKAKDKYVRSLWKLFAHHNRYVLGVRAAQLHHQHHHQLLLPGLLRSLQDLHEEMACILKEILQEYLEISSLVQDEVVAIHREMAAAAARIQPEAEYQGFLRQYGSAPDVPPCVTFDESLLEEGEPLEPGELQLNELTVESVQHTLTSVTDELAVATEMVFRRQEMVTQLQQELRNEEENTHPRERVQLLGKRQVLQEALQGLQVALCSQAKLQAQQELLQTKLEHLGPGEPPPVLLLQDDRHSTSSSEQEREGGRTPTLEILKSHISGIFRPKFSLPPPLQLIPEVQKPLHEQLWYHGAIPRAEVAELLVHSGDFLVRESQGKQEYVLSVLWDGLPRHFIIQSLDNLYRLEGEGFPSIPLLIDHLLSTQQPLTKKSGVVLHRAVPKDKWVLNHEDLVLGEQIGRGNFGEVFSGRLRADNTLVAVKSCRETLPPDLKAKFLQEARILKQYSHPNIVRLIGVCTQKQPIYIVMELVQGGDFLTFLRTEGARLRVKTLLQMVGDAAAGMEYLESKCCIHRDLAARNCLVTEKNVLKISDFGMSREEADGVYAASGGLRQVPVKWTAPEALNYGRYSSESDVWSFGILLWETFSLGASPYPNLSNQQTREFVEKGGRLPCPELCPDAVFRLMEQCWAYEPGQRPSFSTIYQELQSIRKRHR
Test [8] addresses T3, NUAK family SNF1-like kinase 1 (Homo sapiens) (UniProt O60285).
T3 sequence (whole entry): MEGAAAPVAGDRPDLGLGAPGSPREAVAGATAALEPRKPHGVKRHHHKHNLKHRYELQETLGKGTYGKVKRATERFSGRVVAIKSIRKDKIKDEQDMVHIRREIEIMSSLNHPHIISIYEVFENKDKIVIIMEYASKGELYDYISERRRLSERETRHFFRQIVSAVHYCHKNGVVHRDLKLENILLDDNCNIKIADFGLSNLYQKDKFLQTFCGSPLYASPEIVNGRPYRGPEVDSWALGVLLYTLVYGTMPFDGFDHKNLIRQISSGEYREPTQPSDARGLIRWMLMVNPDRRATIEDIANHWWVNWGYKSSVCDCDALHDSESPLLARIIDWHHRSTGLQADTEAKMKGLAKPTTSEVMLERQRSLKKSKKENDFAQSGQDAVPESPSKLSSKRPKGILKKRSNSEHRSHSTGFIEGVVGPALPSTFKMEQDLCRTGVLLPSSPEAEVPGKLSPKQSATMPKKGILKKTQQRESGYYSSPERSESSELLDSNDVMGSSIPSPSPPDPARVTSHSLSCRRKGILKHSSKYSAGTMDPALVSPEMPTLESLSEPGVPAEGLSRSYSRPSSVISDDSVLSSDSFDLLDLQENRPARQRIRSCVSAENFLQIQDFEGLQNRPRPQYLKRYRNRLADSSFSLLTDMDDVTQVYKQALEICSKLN
Description: Selectivity interaction (KinomeScan (DiscoverX)) EUB0000655a NUAK1. Particulars: at 10 µM.

Test [9] deals with Cyclin-dependent kinase 2 (Homo sapiens, UniProt P24941). Description: Selectivity interaction (Kinase panel (DSF assay)) EUB0001558a CDK2.

Chain of Mitogen-activated protein kinase kinase kinase 20 (Homo sapiens) (Q9NYL2 2-800 limits assumed): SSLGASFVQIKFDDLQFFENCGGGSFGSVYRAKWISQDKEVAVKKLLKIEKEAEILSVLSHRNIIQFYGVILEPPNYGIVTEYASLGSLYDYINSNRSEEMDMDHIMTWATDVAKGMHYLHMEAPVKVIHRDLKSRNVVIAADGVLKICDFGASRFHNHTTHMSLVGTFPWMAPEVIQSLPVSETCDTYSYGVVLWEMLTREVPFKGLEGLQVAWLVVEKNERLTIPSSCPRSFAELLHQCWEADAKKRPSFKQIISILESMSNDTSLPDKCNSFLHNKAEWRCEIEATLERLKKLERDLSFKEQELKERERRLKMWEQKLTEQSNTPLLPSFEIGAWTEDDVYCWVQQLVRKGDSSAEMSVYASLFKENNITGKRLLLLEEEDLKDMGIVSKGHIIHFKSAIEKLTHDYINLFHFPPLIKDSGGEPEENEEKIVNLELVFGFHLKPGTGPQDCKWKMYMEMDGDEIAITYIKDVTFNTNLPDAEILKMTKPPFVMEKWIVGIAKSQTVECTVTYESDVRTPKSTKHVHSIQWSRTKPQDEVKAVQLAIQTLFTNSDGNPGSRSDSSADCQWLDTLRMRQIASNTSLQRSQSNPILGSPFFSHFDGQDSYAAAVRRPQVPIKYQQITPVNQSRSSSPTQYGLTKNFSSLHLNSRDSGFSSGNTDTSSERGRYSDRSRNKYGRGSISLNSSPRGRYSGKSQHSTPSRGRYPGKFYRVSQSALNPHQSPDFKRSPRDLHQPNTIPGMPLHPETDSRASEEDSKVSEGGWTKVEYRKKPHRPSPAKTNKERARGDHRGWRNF
Chain of Receptor-interacting serine/threonine-protein kinase 3 (Homo sapiens) (Q9Y572 whole entry, looked up): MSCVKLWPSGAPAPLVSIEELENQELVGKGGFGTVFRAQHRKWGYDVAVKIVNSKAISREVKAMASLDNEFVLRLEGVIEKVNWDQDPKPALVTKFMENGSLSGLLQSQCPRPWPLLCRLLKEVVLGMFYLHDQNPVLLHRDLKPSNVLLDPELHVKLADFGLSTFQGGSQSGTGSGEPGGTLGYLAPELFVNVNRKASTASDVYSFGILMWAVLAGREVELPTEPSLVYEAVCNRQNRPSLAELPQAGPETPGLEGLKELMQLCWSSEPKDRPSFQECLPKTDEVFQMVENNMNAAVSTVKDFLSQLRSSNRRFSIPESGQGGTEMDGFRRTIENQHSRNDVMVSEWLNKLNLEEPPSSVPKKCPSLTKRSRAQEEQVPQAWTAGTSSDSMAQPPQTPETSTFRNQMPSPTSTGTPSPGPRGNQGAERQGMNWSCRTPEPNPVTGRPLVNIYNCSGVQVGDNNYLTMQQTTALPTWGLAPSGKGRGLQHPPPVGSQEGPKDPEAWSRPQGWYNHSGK

Take `Cn1cc(-n2cnc3c(NCc4nc5cc(Cl)c(Cl)cc5[nH]4)nc(N4CCOCC4)nc32)cn1`: the % of inhibition in test [1] was -15.4%.

With `CNC(=O)Nc1ccc(-c2nc(N3CC4CCC(C3)O4)c3cnn(C4CCC5(CC4)OCCO5)c3n2)cc1`, the % of control in test [2] and in [3] was 100% in each case. On to `CN(C)CC#Cc1ccc2[nH]c3c(c2c1)-c1nc(N)ncc1CCC3`, for which the % of control in test [4] was 30%.

Regarding `CC[C@@H]1[C@H](F)C(=O)N[C@@H]1COc1nccc2cc(C(N)=O)c(OC)cc12` [ZIMLOVISERTIB], the % of inhibition in test [5] (at 0.01 µM) was 51.3%; in test [5] (at 0.04 µM), 6.7%; in test [5] (at 0.2 µM) it was 7.4%; in test [5] (at 1 µM) it was 18.9%; in test [5] (at 5 µM), 25.3%.

For `C=CC(=O)Nc1cc(-n2c(=O)ccc3cnc4ccc(-c5ccc(NS(C)(=O)=O)cc5)cc4c32)ccc1C`, the % of control in test [6] (at 1 µM) was found to be 64%; in [6] (at 10 µM) it was 12%. Turning to `C=CC(=O)Nc1cccc(C(=O)Nc2ccc(Nc3cc(-c4[nH]c(SC)nc4C)ccn3)cc2)c1`, the % of control was 88% in test [7] (at 1 µM) and 91% in [7] (at 5 µM). `CN(C)CCOc1ccc(-c2nc(-c3ccncc3)c(-c3ccc4c(c3)CC/C4=N\O)[nH]2)cc1` registered a % of control in test [8] of 100%.

With `CC(C)(O)[C@H](F)CN1Cc2cc(NC(=O)c3cnn4cccnc34)c(N3CCOCC3)cc2C1=O`, the dTM in test [9] turned out to be 0.1 K.

These data come from ChEMBL document CHEMBL5465560, “Selectivity Literature for EUbOPEN Chemogenomic Library” (2024).
